Here are results for one compound from patent US20240226072A1 (Stichting Het Nederlands Kanker Instituut, priority 2022, published 2024).

For orientation: Cmax means the peak of the concentration-time curve. By Tmax is commonly meant the time from dosing to the highest level.

One data set can be described thus: in vivo. The conditions noted are these: male, mouse, po, 10 mg/kg; for AUC(0-t): AUC0-24 h. How it is done:
The Jevtana (10 mg/mL) solution contains 0.26 mg/mL polysorbate 80 and 15% (w/v) ethanol, and is adjusted to pH 2-6 with citric acid. […] The stock solution was further diluted 5-fold with water to reach a 2.5 mg/mL dosing solution for oral administration. The vehicle solution only consists of polysorbate 80, ethanol and water (1:1:8, v/v/v). […] All dosing solutions were prepared freshly on the day of the experiment.
At the termination time point of 24 hours, mice were anesthetized using an isoflurane evaporator with 3% isoflurane with 0.8 L/min air and 0.3 L/min oxygen. A final blood sample was taken using cardiac puncture, using Eppendorf tubes previously prepared with heparin as an anticoagulant. Subsequently, the anesthetized mice were sacrificed by cervical dislocation and the tissues of interest were collected. Brain, liver, spleen, kidney, small intestine, and testis were collected. The small intestinal content (SIC) was separately collected by removing this from the small intestinal tissue, which was subsequently rinsed with saline to remove possibly fecal residue. The blood samples were centrifuged at 9,000×g for 6 minutes at 4° C., and the plasma fraction was isolated and stored at −30° C. until analysis. Brain, liver, spleen, kidney, small intestinal tissue, SIC, and testis were homogenized in a FastPrep-24™ 5G homogenizer (M. P. Biomedicals, Santa Ana, CA, USA) for 1 min with 1, 3, 1, 2, 3, 2, and 1 mL of 2% (w/v) BSA in Milli-Q water, respectively. Until analysis of the samples, they were all stored at −30° C.
Pharmacokinetic parameters were estimated by non-compartmental analysis using the software package of PK solutions 2.0.2 (SUMMIT, Research Service). The area under the curve (AUC) of the plasma-concentration time curve for all the compounds was calculated using the linear trapezoidal rule without extrapolating to infinity. The peak plasma concentration (Cmax) and the time to reach peak plasma concentration (Tmax) were obtained directly from the individual raw data. For the statistical analysis and the graphs GraphPad Prism 9 (GraphPad Software Inc., La Jolla, CA, USA) was used. The statistics for the comparison of multiple groups were calculated with the one-way analysis of variance (ANOVA), whereas Sidak's post hoc correction was performed. Log-transformation before statistical analysis was applied, when variances within the groups were not homogeneously distributed. Differences were considered statistically significant when P<0.05. All data are presented as geometric mean±SD.

Data set [1] in a line: Plasma pharmacokinetics and tissue distribution 2 h after oral cabazitaxel 10 mg/kg with vehicle or 25 mg/kg ritonavir in wild-type, Oatp1a/1b−/−, Oatp1a/1b/2b1−/−, OATP1B1- and OATP1B3-transgenic mice. Format: in vivo. The conditions noted are these: for reduction of SIC recovered percentage of dose corrected for the plasma AUC: vehicle + oral cabazitaxel 10 mg/kg, 2 h; for Cmax / Tmax / AUC(0-t): male, FVB, mouse, plasma, po, 10 mg/kg, vehicle pretreatment, oral 10 mg/kg cabazitaxel; for AUC(0-t): 0-2 h, read-out: AUC0-2 h. Here is the method:
All animals were fasted 2 to 3 hours prior to the start of the experiment to minimize variation in absorption after oral administration. […] Subsequently, cardiac puncture was performed with a heparinized needle and syringe collecting a final blood sample. […] All samples were stored at −30° C. until analysis.
Differences were considered statistically significant when P<0.05. All data are presented as geometric mean±SD.

For data set [2] the following is noted: Oatp1a/b−/− compared to wild-type mice after intravenous administration; Iusuf et al.; cited from earlier work.
For data set [3] the following is noted: chemically castrated men compared to non-castrated patients; cited from earlier work.
Setting [4] is: Cyp3aXAV (human CYP3A in Cyp3a−/−, FVB background).

As for `CC(=O)O[C@@]12CO[C@@H]1C[C@H](O)[C@@]1(C)C(=O)[C@H](O)C3=C(C)[C@@H](OC(=O)[C@H](O)[C@@H](NC(=O)OC(C)(C)C)c4ccccc4)C[C@@](O)([C@@H](OC(=O)c4ccccc4)[C@H]21)C3(C)C` [docetaxel], the AUC0-24 h in the data set “in vivo” (setting [4]) is 0.271 µM·h. For the same compound, the AUC(0-t) in “in vivo” (setting [4]) was 0.285 µM·h; in the data set “in vivo” (FVB, Cyp3aXAV), 0.681 µM·h; in the data set “in vivo” (FVB, wild-type), 0.707 µM·h; in data set [1] (OATP1B1-transgenic mice), 0.271 ± 0.144 µM·h; in data set [1] (OATP1B3-transgenic mice), 0.305 ± 0.177 µM·h; in data set [1] (Oatp1a/1b/2b1−/− mice), 0.252 ± 0.069 µM·h. For the same compound, the AUC(0-t) in data set [1] (Oatp1a/1b−/− mice) stood at 0.216 ± 0.047 µM·h; in data set [1] (wild-type mice), 0.091 ± 0.043 µM·h. The Cmax in the data set “in vivo” (FVB, wild-type, Cmax) is 119 nM; in data set [1] (OATP1B1-transgenic mice), 206 ± 105 nM; in data set [1] (OATP1B3-transgenic mice), 248 ± 145 nM; in data set [1] (Oatp1a/1b/2b1−/− mice) it was 202 ± 65 nM; in data set [1] (Oatp1a/1b−/− mice), 191 ± 43 nM; in data set [1] (wild-type mice) it was 84 ± 30 nM. Also, the “reduction of SIC recovered percentage of dose corrected for the plasma AUC” value in data set [1] (Oatp1a/1b/2b1−/− compared to wild-type mice) amounted to 2.9 fold; in data set [1] (Oatp1a/1b−/− compared to wild-type mice), 4.0 fold. Besides, the Tmax in data set [1] (OATP1B1-transgenic mice) is 35 min; in data set [1] (OATP1B3-transgenic mice), 45 min; in data set [1] (Oatp1a/1b/2b1−/− mice), 35 min; in data set [1] (Oatp1a/1b−/− mice), 35 min; in data set [1] (wild-type mice), 25 min. Moreover, the “increase in plasma AUC” value in data set [2] is recorded as 3 fold. The “reduction of plasma AUC” value in data set [3] was 2 fold.
